Test results taken from article PMC9785969, “Synthesis, Biological Evaluation, and Molecular Dynamics of Carbothioamides Derivatives as Carbonic Anhydrase II and 15-Lipoxygenase Inhibitors” (Molecules, 2022).
Entries after “also recorded” stand apart in the source; their conditions may differ. Where two headings read alike, the source gives them in different places.

Key:
[1] = biological target: bovine carbonic anhydrase II (b-CA II) (Bos taurus, UniProt P00921); assay: Carbonic anhydrase (b-CA II) inhibition assay, p-nitrophenyl acetate hydrolysis; type: biochemical; details: for selectivity for b-CA II over 15-LOX: b-CA II vs 15-LOX
Chain of bovine carbonic anhydrase II (b-CA II) (P00921 whole entry): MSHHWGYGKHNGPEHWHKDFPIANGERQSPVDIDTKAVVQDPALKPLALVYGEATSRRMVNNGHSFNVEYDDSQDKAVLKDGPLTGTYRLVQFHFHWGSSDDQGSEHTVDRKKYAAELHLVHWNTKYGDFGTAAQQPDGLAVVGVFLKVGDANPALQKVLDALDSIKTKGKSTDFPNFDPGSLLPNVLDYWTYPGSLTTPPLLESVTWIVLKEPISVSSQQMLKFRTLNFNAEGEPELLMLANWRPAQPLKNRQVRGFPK
Method: Carbonic anhydrase (b-CA II) inhibition activity was determined according to the previously reported protocol. IC50 values were calculated through GraphPad PRISM 5.0 Software Inc., San Diego, CA, USA.
This method is based on the spectrophotometric determination of hydrolytic product of substrate p-nitrophenyl acetate substrate. Assay volume was kept at 100 µL, comprised of 60 µL of Tris-sulfate buffer (50 mM, 0.1 mM ZnCl2 at pH 7.6), 10 µL of test compound with concentration of 50 µM and 10 µL (50 U) of b-CA II. The reaction mixture was incubated at 25 °C for 10 min and […]
Reaction was initiated by addition of 20 µL of p-nitrophenyl acetate (6mM) as substrate and incubated for further 30 min. […]
test compounds. All experiments were performed in triplicate and dose response curves were […]
(1 picture or pasted object on this page, not shown here)

15-lipoxygenase (15-LOX) = biological target: T1, 15-lipoxygenase (15-LOX) (Glycine max, UniProt P08170); assay: Lipoxygenase (15-LOX) inhibition assay, linoleic acid substrate, absorbance 234 nm; type: biochemical; details: for IC50: mean of three experiments, read-out: 15-LOX IC50 ± SEM; for inhibition at 100 µM: final concentration of 100 μM
T1 sequence (P08170 1-839): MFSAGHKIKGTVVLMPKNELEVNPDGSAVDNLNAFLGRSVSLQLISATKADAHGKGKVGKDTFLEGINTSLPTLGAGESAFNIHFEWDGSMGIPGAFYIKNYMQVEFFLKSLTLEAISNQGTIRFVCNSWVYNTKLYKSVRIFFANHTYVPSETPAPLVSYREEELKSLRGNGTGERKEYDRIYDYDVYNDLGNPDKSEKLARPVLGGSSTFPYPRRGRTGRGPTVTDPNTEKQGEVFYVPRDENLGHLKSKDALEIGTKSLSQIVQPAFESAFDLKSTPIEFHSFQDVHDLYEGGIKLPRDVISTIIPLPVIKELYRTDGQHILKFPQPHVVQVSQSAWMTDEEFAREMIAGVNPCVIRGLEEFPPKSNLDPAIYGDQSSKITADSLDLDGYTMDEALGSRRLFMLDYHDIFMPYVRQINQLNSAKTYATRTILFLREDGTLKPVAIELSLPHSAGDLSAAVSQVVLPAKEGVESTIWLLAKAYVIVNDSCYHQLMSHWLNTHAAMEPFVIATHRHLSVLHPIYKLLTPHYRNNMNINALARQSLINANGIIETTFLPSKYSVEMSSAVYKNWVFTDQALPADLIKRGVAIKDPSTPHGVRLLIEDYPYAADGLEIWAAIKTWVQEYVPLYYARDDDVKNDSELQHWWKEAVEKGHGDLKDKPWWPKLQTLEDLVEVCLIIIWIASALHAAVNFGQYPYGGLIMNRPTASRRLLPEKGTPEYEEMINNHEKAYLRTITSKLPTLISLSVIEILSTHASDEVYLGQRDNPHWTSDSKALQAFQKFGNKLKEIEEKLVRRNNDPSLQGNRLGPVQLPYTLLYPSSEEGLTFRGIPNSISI
Method: The lipoxygenase activity was determined with the some modifications to the reported method. The compounds were first screened at 0.1 mM. Assay buffer was made containing 100 mM KH2PO4 and the pH was adjusted at 8.0. Initially, 145 µL of assay buffer was added in each well of a 96-well plate, followed by the addition of 10 µL of 15-LOX enzyme (42.5 units/well). Then, 20 µL of test compound was added in each well and incubated for 10 min at 25 °C. Absorbance was measured at 234 nm by multimode micro-plate reader, FLUOstar Omega, Germany as a pre-read value. Further reaction was carried out by adding of 25 µL of substrate linoleic acid and incubation for 10 min at 25 °C. After incubation, absorbance was calculated again at 234 nm as after read. […] The IC50 values for all experiments were determined using a nonlinear curve fitting tool and all experiments were carried out in triplicate format in GraphPad PRISM 5.0 (GraphPad, San Diego, CA, USA).

[2] = mean of three experiments, read-out: b-CA II IC50 ± SEM

With COc1cc2cc(OC)c(OC)c(/C=N/NC(N)=S)c2cc1OC [3a] the IC50 [1, 2] was 310 ± 10 nM, the IC50 (15-lipoxygenase (15-LOX)) was 370 ± 20 nM and the melting point was 240 °C.

With C#CCN(C)c1ccc(/C=N/NC(N)=S)cc1 [3b] the “selectivity for b-CA II over 15-LOX” value [1] was “selective towards b-CA II; also recorded: selective inhibitors of CA II”, the IC50 [1, 2] was 4970 ± 160 nM and the inhibition at 100 µM (15-lipoxygenase (15-LOX)) was under 50%. It also gave a melting point of 245 °C.

In the case of NC(=S)N/N=C/c1ccccc1F [3c], the IC50 [1, 2] is reported as 2020 ± 120 nM and the IC50 (15-lipoxygenase (15-LOX)) is reported as 160 ± 10 nM.

In the case of NC(=S)N/N=C/c1cc([N+](=O)[O-])ccc1Cl [3d], the “selectivity for b-CA II over 15-LOX” value [1] is reported as “selective towards b-CA II; also recorded: selective inhibitors of CA II”, the IC50 [1, 2] is reported as 280 ± 10 nM and the inhibition at 100 µM (15-lipoxygenase (15-LOX)) is reported as under 50%. The melting point was 248 °C.

For COc1ccc(/C=N/NC(N)=S)cc1O [3e], the IC50 [1, 2] was 380 ± 20 nM and the IC50 (15-lipoxygenase (15-LOX)) was 1340 ± 140 nM.

NC(=S)N/N=C/c1ccc(Br)s1 [3f] gave an IC50 [1, 2] of 10200 ± 210 nM, an IC50 (15-lipoxygenase (15-LOX)) of 820 ± 190 nM and a melting point of 243 °C.

In the case of NC(=S)N/N=C/c1c(F)cccc1Cl [3g], the “selectivity for b-CA II over 15-LOX” value [1] is reported as “selective towards b-CA II; also recorded: selective inhibitors of CA II”, the IC50 [1, 2] is reported as 840 ± 50 nM and the inhibition at 100 µM (15-lipoxygenase (15-LOX)) is reported as under 50%.

For NC(=S)N/N=C/c1cccc(F)c1 [3h], the IC50 [1] was 130 ± 10 nM, the “fold higher potential towards b-CA II compared with standard inhibitor acetazolamide” value ([1]; vs acetazolamide) was “≈ 7 fold” and the IC50 (15-lipoxygenase (15-LOX)) was 140 ± 10 nM.
